Measured values as given in BigSolDB 2.1.

C=C(C)[C@@H]1CC[C@]2(CO)CC[C@]3(C)[C@H](CC[C@@H]4[C@@]5(C)CC[C@H](O)C(C)(C)[C@@H]5CC[C@]43C)[C@@H]12
solubility (mole fraction)
Settings	278.2 K	283.2 K	288.2 K	298.2 K	308.2 K
in acetone	0.000556	–	0.000866	0.00158	0.00227
in chloroform	0.0026	–	0.00338	0.00437	0.00511
in cyclohexane	–	1.68e-05	2.7e-05	6.34e-05	0.000167
in dichloromethane	0.00079	0.000837	0.000897	0.000991	–
in ethanol	0.000579	–	0.000658	0.000898	0.00113
in ethyl acetate	0.000963	–	0.00155	0.00207	0.00305
in ethyl formate	0.000301	–	0.000316	0.000333	0.000395
in methanol	0.000179	–	0.000248	0.000328	0.000397
in methyl acetate	0.000598	–	0.000705	0.000797	0.000917
in methyl formate	0.000187	0.000212	0.000257	0.000316	–
in n-butanol	0.00181	–	0.00213	0.00238	0.00271
in n-hexanol	0.000744	–	0.000846	0.00102	0.00127
in n-pentanol	0.00095	–	0.0012	0.00143	0.00171
in n-propanol	0.00113	–	0.00127	0.00146	0.0016
